One test concerns Salmonella typhimurium. Description: Induction of beta-galactosidase production in Salmonella enterica Typhimurium MET844 after 4 hrs by beta-Gal reporter gene assay. Format: functional, organism-based. The settings on record: Salmonella enterica subsp. enterica serovar Typhimurium. (A reporter such as luciferase makes a cellular process visible.)
For a further test, the system named is Bacillus cereus. Description: Inhibition of biofilm formation in Bacillus cereus at 8 uM after 24 hrs by 96-well polyvinylchloride microtiter plate assay. Format: functional, organism-based.
For a further test, the system named is Vibrio harveyi. Description: Induction of bioluminescence in Vibrio harveyi after 4 hrs by luminescence reporter assay. The settings on record: read-out: IC50 (the source's name).

The structures appear in SMILES notation. Active and inactive are the calls of the source. No cut-off for these calls is given here.

Regarding `CC(=O)C(=O)C(O)CO` (stereo unspecified), the outcome in the test on Salmonella typhimurium was Active.
As to `CC(=O)C(=O)[C@@H](O)CO`, in the test on Bacillus cereus, the result was Active.
With `CC(=O)OC[C@H](OC(C)=O)C(=O)C(C)=O`, the result in the test on Salmonella typhimurium and in the test with Bacillus cereus was Active. In addition, the EC50 with Vibrio harveyi amounted to 2100 nM.
In the case of `CC(=O)OCC(OC(C)=O)C(=O)C(C)=O` (stereo unspecified), the EC50 in the test on Vibrio harveyi is 2400 nM.
